Measurements published in US12077503B2, “Substituted cyclic amides and their use as herbicides” (FMC CORPORATION, priority 2015, dated 2024).

What was measured:
Type in all cases: in vivo
[1] = tested on: redroot pigweed (Amaranthus retroflexus); assay: Test G Post-Emergence Protocol; conditions: Amaranthus retroflexus, post-emergence, 312 h, read-out: Pigweed, Redroot damage rating; for pest or weed control at 15.625 g/ha: 15.625 g ai/ha, evaluated after 13 days (100=total damage to plant; 0=no damage to plant); for pest or weed control at 62.5 g/ha: 62.5 g ai/ha; for pest or weed control at 62.5 g/ha / pest or weed control at 250 g/ha: evaluated after 13 days, 100=total damage to plant, 0=no damage to plant; for pest or weed control at 250 g/ha: 250 g ai/ha
Procedure, shortened: (§1)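 Eight days post-sowing, plants received a spray of test compound (acetone/water 50:50, 0.5% Tween 20) at 15.625, 62.5 or 250 g/ha. Glasshouse regime thereafter: 24/16 °C, 14 h light, 65% humidity. Assessment after 13 days on a 0–100 damage scale.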

[2] = tested on: ivy-leaved morning glory (Ipomoea hederacea); assay: Test G Post-Emergence Protocol; conditions: Ipomoea, post-emergence, 312 h, read-out: Morningglory, Ivy-leaved damage rating; for pest or weed control at 15.625 g/ha: 15.625 g ai/ha, evaluated after 13 days (100=total damage to plant; 0=no damage to plant); for pest or weed control at 62.5 g/ha: 62.5 g ai/ha; for pest or weed control at 62.5 g/ha / pest or weed control at 250 g/ha: evaluated after 13 days, 100=total damage to plant, 0=no damage to plant; for pest or weed control at 250 g/ha: 250 g ai/ha
Procedure, shortened: as §1

corn (Zea mays) [3] = assay: Test G Post-Emergence Protocol; conditions: Zea mays, post-emergence, 312 h, read-out: Corn damage rating; for plant injury at 15.625 g/ha: 15.625 g ai/ha, evaluated after 13 days (100=total damage to plant; 0=no damage to plant); for plant injury at 62.5 g/ha: 62.5 g ai/ha; for plant injury at 62.5 g/ha / plant injury at 250 g/ha: evaluated after 13 days, 100=total damage to plant, 0=no damage to plant; for plant injury at 250 g/ha: 250 g ai/ha
Procedure, shortened: as §1

[4] = tested on: giant foxtail (Setaria faberi); assay: Test G Post-Emergence Protocol; conditions: Setaria faberi, post-emergence, 312 h, read-out: Foxtail, Giant damage rating; for pest or weed control at 15.625 g/ha: 15.625 g ai/ha, evaluated after 13 days (100=total damage to plant; 0=no damage to plant); for pest or weed control at 62.5 g/ha: 62.5 g ai/ha; for pest or weed control at 62.5 g/ha / pest or weed control at 250 g/ha: evaluated after 13 days, 100=total damage to plant, 0=no damage to plant; for pest or weed control at 250 g/ha: 250 g ai/ha
Procedure, shortened: as §1

[5] = tested on: velvetleaf (Abutilon theophrasti); assay: Test G Post-Emergence Protocol; conditions: Abutilon theophrasti, post-emergence, 312 h, read-out: Velvetleaf damage rating; for pest or weed control at 15.625 g/ha: 15.625 g ai/ha, evaluated after 13 days (100=total damage to plant; 0=no damage to plant); for pest or weed control at 62.5 g/ha: 62.5 g ai/ha; for pest or weed control at 62.5 g/ha / pest or weed control at 250 g/ha: evaluated after 13 days, 100=total damage to plant, 0=no damage to plant; for pest or weed control at 250 g/ha: 250 g ai/ha
Procedure, shortened: as §1

[6] = tested on: barnyardgrass (Echinochloa crus-galli); assay: Test G Post-Emergence Protocol; conditions: Echinochloa crus-galli, post-emergence, 312 h, read-out: Barnyardgrass damage rating; for pest or weed control at 15.625 g/ha: 15.625 g ai/ha, evaluated after 13 days (100=total damage to plant; 0=no damage to plant); for pest or weed control at 62.5 g/ha: 62.5 g ai/ha; for pest or weed control at 62.5 g/ha / pest or weed control at 250 g/ha: evaluated after 13 days, 100=total damage to plant, 0=no damage to plant; for pest or weed control at 250 g/ha: 250 g ai/ha
Procedure, shortened: as §1

[7] = tested on: redroot pigweed (Amaranthus retroflexus); assay: Test G Pre-Emergence Protocol; conditions: Amaranthus retroflexus, pre-emergence, 312 h, evaluated after 13 days; for pest or weed control at 15.625 g/ha: 15.625 g ai/ha; for pest or weed control at 15.625 g/ha / pest or weed control at 250 g/ha: read-out: Pigweed, Redroot damage rating (100=total damage to plant; 0=no damage to plant); for pest or weed control at 62.5 g/ha: 62.5 g ai/ha, 100=total damage to plant, 0=no damage to plant, read-out: Pigweed, Redroot damage rating; for pest or weed control at 250 g/ha: 250 g ai/ha
Procedure, shortened: (§2)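 Seeds were sown in standard soil and kept one day in a glasshouse (24/16° C day/night, 14 h light, 65% humidity), then sprayed with compound in acetone/water (50:50) containing 0.5% Tween 20 at 15.625, 62.5 or 250 g/ha. Damage was scored after 13 days (0 = none, 100 = total).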

[8] = tested on: ivy-leaved morning glory (Ipomoea hederacea); assay: Test G Pre-Emergence Protocol; conditions: Ipomoea, pre-emergence, 312 h, evaluated after 13 days; for pest or weed control at 15.625 g/ha: 15.625 g ai/ha; for pest or weed control at 15.625 g/ha / pest or weed control at 250 g/ha: read-out: Morningglory, Ivy-leaved damage rating (100=total damage to plant; 0=no damage to plant); for pest or weed control at 62.5 g/ha: 62.5 g ai/ha, 100=total damage to plant, 0=no damage to plant, read-out: Morningglory, Ivy-leaved damage rating; for pest or weed control at 250 g/ha: 250 g ai/ha
Procedure, shortened: as §2

corn (Zea mays) [9] = assay: Test G Pre-Emergence Protocol; conditions: Zea mays, pre-emergence, 312 h, evaluated after 13 days; for plant injury at 15.625 g/ha: 15.625 g ai/ha; for plant injury at 15.625 g/ha / plant injury at 250 g/ha: read-out: Corn damage rating (100=total damage to plant; 0=no damage to plant); for plant injury at 62.5 g/ha: 62.5 g ai/ha, 100=total damage to plant, 0=no damage to plant, read-out: Corn damage rating; for plant injury at 250 g/ha: 250 g ai/ha
Procedure, shortened: as §2

[10] = tested on: giant foxtail (Setaria faberi); assay: Test G Pre-Emergence Protocol; conditions: Setaria faberi, pre-emergence, 312 h, evaluated after 13 days; for pest or weed control at 15.625 g/ha: 15.625 g ai/ha; for pest or weed control at 15.625 g/ha / pest or weed control at 250 g/ha: read-out: Foxtail, Giant damage rating (100=total damage to plant; 0=no damage to plant); for pest or weed control at 62.5 g/ha: 62.5 g ai/ha, 100=total damage to plant, 0=no damage to plant, read-out: Foxtail, Giant damage rating; for pest or weed control at 250 g/ha: 250 g ai/ha
Procedure, shortened: as §2

[11] = tested on: velvetleaf (Abutilon theophrasti); assay: Test G Pre-Emergence Protocol; conditions: Abutilon theophrasti, pre-emergence, 312 h, evaluated after 13 days; for pest or weed control at 15.625 g/ha: 15.625 g ai/ha; for pest or weed control at 15.625 g/ha / pest or weed control at 250 g/ha: read-out: Velvetleaf damage rating (100=total damage to plant; 0=no damage to plant); for pest or weed control at 62.5 g/ha: 62.5 g ai/ha, 100=total damage to plant, 0=no damage to plant, read-out: Velvetleaf damage rating; for pest or weed control at 250 g/ha: 250 g ai/ha
Procedure, shortened: as §2

[12] = tested on: barnyardgrass (Echinochloa crus-galli); assay: Test G Pre-Emergence Protocol; conditions: Echinochloa crus-galli, pre-emergence, 312 h, evaluated after 13 days; for pest or weed control at 15.625 g/ha: 15.625 g ai/ha; for pest or weed control at 15.625 g/ha / pest or weed control at 250 g/ha: read-out: Barnyardgrass damage rating (100=total damage to plant; 0=no damage to plant); for pest or weed control at 62.5 g/ha: 62.5 g ai/ha, 100=total damage to plant, 0=no damage to plant, read-out: Barnyardgrass damage rating; for pest or weed control at 250 g/ha: 250 g ai/ha
Procedure, shortened: as §2

SMILES | pest or weed control at 15.625 g/ha [1] | pest or weed control at 62.5 g/ha [1] | pest or weed control at 250 g/ha [1] | pest or weed control at 15.625 g/ha [2] | pest or weed control at 62.5 g/ha [2] | pest or weed control at 250 g/ha [2] | plant injury at 15.625 g/ha (corn (Zea mays) [3]) | plant injury at 62.5 g/ha (corn (Zea mays) [3]) | plant injury at 250 g/ha (corn (Zea mays) [3]) | pest or weed control at 15.625 g/ha [4] | pest or weed control at 62.5 g/ha [4] | pest or weed control at 250 g/ha [4] | pest or weed control at 15.625 g/ha [5] | pest or weed control at 62.5 g/ha [5] | pest or weed control at 250 g/ha [5] | pest or weed control at 15.625 g/ha [6] | pest or weed control at 62.5 g/ha [6] | pest or weed control at 250 g/ha [6] | pest or weed control at 15.625 g/ha [7] | pest or weed control at 62.5 g/ha [7] | other results
Cc1cc([C@H]2CN(C)C(=O)[C@@H]2C(=O)Nc2cccc(F)c2F)cnn1 (racemic) [Compound 1662] | 0% | 0% | 0% | 0% | 0% | 0% | 0% | 0% | 0% | 0% | 0% | 0% | 0% | 0% | 0% | 0% | 0% | 0% | 0% | 0% | pest or weed control at 250 g/ha [7]: 0%; pest or weed control at 15.625 g/ha [8]: 0%; pest or weed control at 62.5 g/ha [8]: 0%; pest or weed control at 250 g/ha [8]: 0%; plant injury at 15.625 g/ha (corn (Zea mays) [9]): 0%; plant injury at 62.5 g/ha (corn (Zea mays) [9]): 0%; plant injury at 250 g/ha (corn (Zea mays) [9]): 0%; pest or weed control at 15.625 g/ha [10]: 0%; pest or weed control at 62.5 g/ha [10]: 0%; pest or weed control at 250 g/ha [10]: 0%; pest or weed control at 15.625 g/ha [11]: 0%; pest or weed control at 62.5 g/ha [11]: 0%; pest or weed control at 250 g/ha [11]: 0%; pest or weed control at 15.625 g/ha [12]: 0%; pest or weed control at 62.5 g/ha [12]: 0%; pest or weed control at 250 g/ha [12]: 0%
Cc1cc([C@H]2CN(C)C(=O)[C@@H]2C(=O)Nc2ccc(F)c(F)c2F)cnn1 (racemic) [Compound 1663] | 0% | 0% | 0% | 0% | 0% | 0% | 0% | 0% | 0% | 0% | 0% | 0% | 0% | 0% | 0% | 0% | 0% | 0% | 0% | 0% | pest or weed control at 250 g/ha [7]: 0%; pest or weed control at 15.625 g/ha [8]: 0%; pest or weed control at 62.5 g/ha [8]: 0%; pest or weed control at 250 g/ha [8]: 0%; plant injury at 15.625 g/ha (corn (Zea mays) [9]): 0%; plant injury at 62.5 g/ha (corn (Zea mays) [9]): 0%; plant injury at 250 g/ha (corn (Zea mays) [9]): 0%; pest or weed control at 15.625 g/ha [10]: 0%; pest or weed control at 62.5 g/ha [10]: 0%; pest or weed control at 250 g/ha [10]: 0%; pest or weed control at 15.625 g/ha [11]: 0%; pest or weed control at 62.5 g/ha [11]: 0%; pest or weed control at 250 g/ha [11]: 0%; pest or weed control at 15.625 g/ha [12]: 0%; pest or weed control at 62.5 g/ha [12]: 0%; pest or weed control at 250 g/ha [12]: 0%
CCS(=O)(=O)c1ccccc1NC(=O)[C@H]1C(=O)N(C)C[C@@H]1c1ccc(C(F)(F)F)cc1 (racemic) [Compound 1664] | 20% | 80% | 80% | 0% | 20% | 30% | 0% | 40% | 80% | 60% | 80% | 80% | 0% | 10% | 20% | 0% | 60% | 70% | 0% | 20% | pest or weed control at 250 g/ha [7]: 100%; pest or weed control at 15.625 g/ha [8]: 0%; pest or weed control at 62.5 g/ha [8]: 0%; pest or weed control at 250 g/ha [8]: 0%; plant injury at 15.625 g/ha (corn (Zea mays) [9]): 0%; plant injury at 62.5 g/ha (corn (Zea mays) [9]): 0%; plant injury at 250 g/ha (corn (Zea mays) [9]): 80%; pest or weed control at 15.625 g/ha [10]: 30%; pest or weed control at 62.5 g/ha [10]: 70%; pest or weed control at 250 g/ha [10]: 90%; pest or weed control at 15.625 g/ha [11]: 0%; pest or weed control at 62.5 g/ha [11]: 0%; pest or weed control at 250 g/ha [11]: 20%; pest or weed control at 15.625 g/ha [12]: 0%; pest or weed control at 62.5 g/ha [12]: 40%; pest or weed control at 250 g/ha [12]: 80%
